Patent US4548926A, “Hypotensive peptides and their use” (Sankyo Company Limited, priority 1983, dated 1985)
Square brackets hold non-standard residues; d marks the D form. Peptide text beside a SMILES is read from it. * marks the point of attachment. 1Nal = N[C@@H](Cc1cccc2ccccc12)C(=O)O; Npys = O=[N+]([O-])c1cccnc1S*; Leu(ol) = CC(C)C[C@H](N)CO; Cbz = O=C(OCc1ccccc1)*; Mpa = O=C(O)CCS

These compounds were tested against T1, human renin (Homo sapiens, UniProt P00797) (assay: Inhibition of renin activity (human renin with sheep angiotensinogen, assay of angiotensin I)). Settings: test compound 5 × 10^-5 mole/liter, phosphate buffer pH 7.3, 10 minutes at 37° C., mean of 3 or 4 experiments.
T1 sequence (P00797 67-406): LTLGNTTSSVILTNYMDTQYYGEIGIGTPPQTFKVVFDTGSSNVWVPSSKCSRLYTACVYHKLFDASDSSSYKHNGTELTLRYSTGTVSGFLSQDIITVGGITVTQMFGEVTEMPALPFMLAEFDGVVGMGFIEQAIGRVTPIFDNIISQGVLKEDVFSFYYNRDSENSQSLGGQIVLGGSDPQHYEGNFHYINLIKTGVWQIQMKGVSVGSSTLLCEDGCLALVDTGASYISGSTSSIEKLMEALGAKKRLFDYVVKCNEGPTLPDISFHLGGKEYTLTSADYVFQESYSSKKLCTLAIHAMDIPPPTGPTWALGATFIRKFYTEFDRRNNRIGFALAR
Format: biochemical
Protocol: The ability of various compounds of the invention to inhibit the activity of renin was determined according to the following method.
Specifically, each test compound was dissolved in 60% v/v aqueous ethanol. Human renin activity in the presence and absence of each compound was measured using sheep angiotensinogen. The total volume of 1 ml of assay mixture contained 0.1 mole/liter phosphate buffer (pH 7.3), human renin (equivalent to 0.5 ng angiotensin I per ml per minute), sheep angiotensinogen (equivalent to 200 ng angiotensin I), the indicated concentration of the test compound, 6% ethanol and angiotensinase inhibitors (10 mmole/liter sodium ethylenediaminetetraacetate and 3.4 mmole/liter 8-hydroxyquinoline). The mixture was allowed to react for 10 minutes at 37° C., and then the reaction was stopped by placing the reaction tube in a boiling water bath for 5 minutes. The mixture was then centrifuged and the supernatant (0.05-0.1 ml) was used to assay remaining angiotensin I.
An identical experiment was carried out, as a control, except that the test compound was omitted. From the values obtained were calculated the % inhibition of renin activity achieved by each test compound. The results are shown in the following Table, in which the compounds of the invention are identified by the numbers assigned to them in the foregoing list. The values given are the mean of 3 or 4 experiments.

% Inhibition [%] | SMILES
71 | CC(C)C[C@@H](CO)NC(=O)[C@H](Cc1c[nH]cn1)NC(=O)[C@H](Cc1cccc2ccccc12)NC(=O)OCc1ccccc1 [Compound 14, N-benzyloxycarbonyl-3-(1-naphthyl)-L-alanyl-L-histidyl-L-leucinol] (Cbz-[1Nal]-His-[Leu(ol)])
54 | CC(C)C[C@@H](C=O)NC(=O)[C@H](Cc1c[nH]cn1)NC(=O)[C@H](Cc1cccc2ccccc12)NC(=O)OCc1ccccc1 [Compound 3, N-benzyloxycarbonyl-3-(1-naphthyl)-L-alanyl-L-histidyl-L-leucinal] (Cbz-[1Nal]-His-Leu-aldehyde)

More lines, now with the values behind:

SMILES | % Inhibition [%]
CC(C)C[C@@H](C=O)NC(=O)[C@H](Cc1c[nH]cn1)NC(=O)[C@H](Cc1ccccc1)NC(=O)CCSSc1ncccc1[N+](=O)[O-] [Compound 2, N-[3-(3-nitro-2-pyridyldithio)propionyl]-L-phenylalanyl-L-histidyl-L-leucinal] ([Mpa](Npys)FHL-aldehyde) | 70
CC(C)C[C@@H](CO)NC(=O)[C@H](Cc1c[nH]cn1)NC(=O)[C@H](Cc1ccccc1)NC(=O)OCc1ccccc1 [Compound 10, N-benzyloxycarbonyl-L-phenylalanyl-L-histidyl-L-leucinol] (Cbz-Phe-His-[Leu(ol)]) | 58
CC(C)C[C@@H](C=O)NC(=O)[C@H](Cc1c[nH]cn1)NC(=O)[C@H](Cc1ccccc1)NC(=O)CCCc1ccccc1 [Compound 1, N-(4-phenylbutyryl)-L-phenylalanyl-L-histidyl-L-leucinal] | 53
CC(C)C[C@@H](CO)NC(=O)[C@H](Cc1c[nH]cn1)NC(=O)[C@H](Cc1ccccc1)NC(=O)CCSSc1ncccc1[N+](=O)[O-] [Compound 11, N-[3-(3-nitro-2-pyridyldithio)propionyl]-L-phenylalanyl-L-histidyl-L-leucinol] ([Mpa](Npys)FH[Leu(ol)]) | 70
